According to US20220213135A1, “DERIVATIVES OF GLYCERO-MANNO-HEPTOSE PHOSPHATE AND THEIR USE IN MODULATING AN IMMUNE RESPONSE” (Shanghai Yao Yuan Biotechnology Co., Ltd., priority 2019, published 2022):

Legend:
[1] = tested on: primary mouse hepatocytes (C57/b6); experiment: CCL2 and CCL7 gene expression by qPCR in primary mouse hepatocytes treated for 4 hours; type: cell-based; details: for CCL7 gene expression, fold change compared to no treatment (PBS) control: Compound 2 2 nanomolar to 200 nanomolar, Compound 1 200 nanomolar and 2 micromolar; for CCL2 gene expression, fold change compared to no treatment (PBS) control: normalized to GAPDH, Compound 2 200 picomolar to 200 nanomolar, Compound 1 up to 2 micromolar
Experimental: FIG. 2. Compound 2 has unexpected biological activity in liver cells compared to H1BADP (Compound 1). Primary hepatocytes were isolated from fresh mouse livers of C57/b6 background. Cells were cultured in serum-free medium overnight before treatment with either Compound 1 or Compound 2 for 4 hours. Cells were harvested and mRNA expression analyzed by qPCR.
The reference compound, referred to herein also as “Compound 1” (HMP1BP) is an intermediate in the H1b-ADP biosynthetic pathway generated by the dephosphorylation of HBP (FIG. 1). Derivatives of Compound 1 were generated and their activities tested in primary mouse hepatocytes (C57/b6). […] Hepatocytes were first isolated from fresh C57/b6 mouse livers, transferred to serum-free medium, and cultured overnight before treatment with Compound 1 or Compound 2 for 4 hours. Liver cells were then harvested, the mRNA isolated and gene expression of C—C motif chemokine ligand 2 (CCL2) and C—C motif chemokine ligand 7 (CCL7) was analyzed by qPCR and presented as fold change compared to a no treatment (PBS) control. Gene expression was normalized to the expression of the housekeeping gene, glyceraldehyde-3-phosphate dehydrogenase (GAPDH). […] In this assay.

ALPK1 = target: T1, ALPK1 (Mus musculus, UniProt Q9CXB8); experiment: Liver chemokine gene expression by qPCR in ALPK1 knockout and wildtype mice after oral treatment; type: in vivo; parameters: from tissue; host or cells: mouse liver (in vivo, wildtype vs ALPK1 knockout mice); details: WT mice, oral 0.5 mg/kg, 4 hours, normalized to PBS treated WT mice
T1 sequence (Q9CXB8 1-1231): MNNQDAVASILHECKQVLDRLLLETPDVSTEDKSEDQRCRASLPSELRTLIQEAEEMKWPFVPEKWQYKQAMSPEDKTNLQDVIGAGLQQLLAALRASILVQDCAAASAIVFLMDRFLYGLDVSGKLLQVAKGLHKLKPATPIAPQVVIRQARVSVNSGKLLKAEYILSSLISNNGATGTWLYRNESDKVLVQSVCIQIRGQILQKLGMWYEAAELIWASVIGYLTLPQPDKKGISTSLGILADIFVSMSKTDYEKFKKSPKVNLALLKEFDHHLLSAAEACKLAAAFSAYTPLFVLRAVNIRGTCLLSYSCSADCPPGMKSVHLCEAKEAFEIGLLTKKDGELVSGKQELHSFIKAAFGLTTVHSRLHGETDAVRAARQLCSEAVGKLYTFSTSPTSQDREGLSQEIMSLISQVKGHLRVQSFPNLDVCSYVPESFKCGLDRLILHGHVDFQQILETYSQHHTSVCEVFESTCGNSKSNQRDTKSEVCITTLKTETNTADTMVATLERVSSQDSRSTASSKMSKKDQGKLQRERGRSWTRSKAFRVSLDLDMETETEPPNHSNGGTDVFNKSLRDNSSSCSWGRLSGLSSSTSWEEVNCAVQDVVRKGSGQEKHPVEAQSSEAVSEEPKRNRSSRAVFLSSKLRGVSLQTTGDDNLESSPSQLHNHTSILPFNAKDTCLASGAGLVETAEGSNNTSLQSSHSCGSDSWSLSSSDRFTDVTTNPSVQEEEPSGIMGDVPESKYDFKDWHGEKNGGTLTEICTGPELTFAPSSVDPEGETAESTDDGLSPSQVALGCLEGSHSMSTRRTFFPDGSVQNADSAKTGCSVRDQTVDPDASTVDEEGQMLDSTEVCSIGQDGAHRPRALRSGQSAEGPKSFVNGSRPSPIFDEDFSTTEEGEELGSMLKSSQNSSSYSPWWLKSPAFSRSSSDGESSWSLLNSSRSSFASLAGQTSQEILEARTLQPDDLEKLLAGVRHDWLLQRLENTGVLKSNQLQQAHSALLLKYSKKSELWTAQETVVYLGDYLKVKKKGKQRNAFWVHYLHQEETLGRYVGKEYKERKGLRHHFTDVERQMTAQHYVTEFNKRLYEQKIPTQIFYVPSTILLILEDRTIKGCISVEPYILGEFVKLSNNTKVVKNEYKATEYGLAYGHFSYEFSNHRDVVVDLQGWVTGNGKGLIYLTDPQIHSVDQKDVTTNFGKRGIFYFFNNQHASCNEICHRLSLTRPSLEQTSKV
Experimental: FIG. 3. Compound 2 induces chemokine and cytokine expression via ALPK1. ALPK1 knockout (KO) mice and wildtype (WT) control were treated orally with either PBS or Compound 2 (0.5 mg/kg). Four hours after treatment, livers were dissected for gene expression analysis by qPCR. Expression was normalized to PBS treated WT mice.
ALPK1 knockout (KO) mice and wildtype (WT) control were treated orally with either PBS or Compound 2 (0.5 mg/kg). Four hours after treatment, livers were dissected for gene expression analysis by qPCR. Expression was normalized to PBS treated WT mice.

[2] = tested on: chemokine and cytokine expression in liver cells; experiment: Chemokine and cytokine gene expression by qPCR in liver of mice after oral gavage of HMP1BP derivatives; type: in vivo, mouse; details: C57 female mice, 1 mg/kg oral gavage
Experimental: FIG. 5A-B. Oral administration of HMP1BP derivatives activates chemokine and cytokine expression in liver cells. 8 week old C57 female mice were administered saline or the indicated compounds by oral gavage, Compounds 2-7 (1 mg·kg) (A) or compounds 9, 10 (1 mg/kg), 11, 13 and 14 (0.1 mg/kg) (B) were tested. Four hours after administration of saline or compound, organs were dissected and gene expression was analyzed by qPCR for CCL2, CCL7, CXCL1, CXCL10, IFNb, IL1b, IL6, and TNFa (A) or CCL2 and CCL7 (B).
Several additional Compound 1 derivatives were tested for cytokine and chemokine gene induction in hepatocytes. […] Mice were treated as described above. Briefly, 8 week-old C57 female mice were separately administered (1 mg/kg) either one of Compounds 2-7 or a saline/DMSO control by oral gavage and 4 hours later the livers were dissected and gene expression analyzed by qPCR. The gene expression results were normalized to GADPH expression. […] The additional genes tested in this experiment are: CXCL1, encoding C—X—C motif chemokine ligand 1; CXCL10, encoding C—X—C motif chemokine ligand 10; IFNb, encoding interferon beta; IL-1b, encoding interleukin 1 beta; IL6, encoding interleukin 6; and TNFα, encoding tumor necrosis factor alpha. […] All the derivatives induced CCL2 and CCL7 more than 20-fold above the control. Compound 2 induced CCL2, CCL7, CXCL10, IFNb, IL6 and TNFα each more than 20-fold.

[3] = tested on: hepatitis B virus AAV8-1.3 HBV; experiment: AAV8-1.3 HBV mouse model: serum HBV DNA (qPCR), HBsAg and HBeAg (ELISA); type: in vivo; details: male C57BL/6 mice, 1 mg/kg per dose, vs PBS
Experimental: FIG. 6A-C. Compound 2 reduces hepatitis infection in murine model. Compound 2 was administered (1 mg/kg PO QD) and serum levels of HBV (A), HbsAg (B), or HbeAg (C) were measured after 7 days.
On day 1, male C57BL/6 mice were intravenously (i.v) injected with hepatitis B virus AAV8-1.3 HBV (1×10^11 v/g) (Beijing Five Plus Molecular Medicine Institute). On day 56 post-injection, each mouse was treated with Compound 2 two times per week (1 mg/kg per dose) or PBS. After seven days of treatment (at day 63 post injection), mouse serum was collected for analysis by qPCR (HBV DNA) and ELISA for Hepatitis B virus surface antigen (HBsAg) and Hepatitis B e-antigen (HBeAg). […] Specifically, the Compound 1 derivatives show tissue-specific liver cell activity and strong induction of cytokine and chemokine genes while also reducing HBV DNA and antigen titers in the serum of infected mice.

[4] = tested on: CCL2 and CCL7 gene expression in kidney, esophagus, liver, lung, brain, and stomach; experiment: CCL2 and CCL7 gene expression by qPCR in organs of mice after oral gavage; type: in vivo, mouse; details: 4 hours
Experimental: FIG. 4. Compound 2 activates cytokine expression only in the liver. 8 week old C57 females were administrated Compound 2 by oral gavage in 200 ul of Saline and 1.5% DMSO as diluent. Four hours later, organs were dissected and gene expression of CCL2 and CCL7 was analyzed by qPCR in kidney, esophagus, liver, lung, brain, and stomach.
In this experiment, CCL7 was expressed more than 50-fold above the PBS control and CCL2 was expressed more than 20-fold above the control.

[5] = after seven days of treatment, ELISA
[6] = liver, 8 week-old C57 female mice

| Compound | CCL2 gene expression at the highest concentration tested ([1]; 2 micromolar) | CCL7 gene expression, fold change compared to no treatment (PBS) control [1] | CCL2 gene expression, fold change compared to no treatment (PBS) control [1] | expression of CCL2, CCL3, CCL7, and CXCL1 in liver (ALPK1) | CCL7 gene induction above the control ([2]; 4 hours (FIG. 5A)) | CXCL10 gene induction ([2]; 4 hours (FIG. 5A)) | IFNb gene induction ([2]; 4 hours (FIG. 5A)) | IL6 gene induction ([2]; 4 hours (FIG. 5A)) | TNFα gene induction ([2]; 4 hours (FIG. 5A)) | CCL2 gene induction above the control ([2]; 4 hours, normalized to GADPH (FIG. 5A)) | HBV DNA copy number in serum ([3]; after seven days of treatment (day 63 post injection), qPCR) | Hepatitis B e-antigen (HBeAg) in serum [3, 5] | Hepatitis B surface antigen (HBsAg) in serum [3, 5] | cytokine and chemokine gene expression in other organs ([4]; kidney, esophagus, lung, brain, stomach) | CCL2 gene expression above the control [4, 6] | CCL7 gene expression above the PBS control [4, 6] |
| --- | --- | --- | --- | --- | --- | --- | --- | --- | --- | --- | --- | --- | --- | --- | --- | --- |
| O=P(O)(O)O[C@@H]1O[C@H]([C@H](O)CO)[C@@H](O)[C@H](O)[C@@H]1O [Compound 1, (2S,3S,4S,5S,6R)-6-((R)-1,2-dihydroxyethyl)-3,4,5-trihydroxytetrahydro-2H-pyran-2-yl dihydrogen phosphate] | only similar to that induced by the lowest concentration (200 picomolar) of Compound 2 | only a much smaller induction in CCL7 gene expression | did not significantly induces CCL2 expression relative to the PBS control except at the highest concentration tested | – | – | – | – | – | – | – | – | – | – | – | – | – |
| CC(=O)OC[C@H](F)[C@H]1O[C@@H](OP(=O)(Oc2ccccc2)Oc2ccccc2)[C@@H](OC(C)=O)[C@@H](OC(C)=O)[C@@H]1OC(C)=O [Compound 2, (2S,3S,4S,5S,6S)-2-((S)-2-acetoxy-1-fluoroethyl)-6-((diphenoxyphosphoryl)oxy)tetrahydro-2H-pyran-3,4,5-triyl triacetate] | – | induced in a dose-dependent manner | significantly induced CCL2 expression in a dose-dependent manner | induce the expression | more than 20 fold | more than 20 fold | more than 20 fold | more than 20 fold | more than 20 fold | more than 20 fold | significantly reduced HBV DNA copy number | decreased compared to the PBS control | decreased compared to the PBS control | No other organ tissue analyzed showed cytokine and chemokine gene expression | more than 20 fold | more than 50 fold |
| CC(=O)OC[C@H](F)C1O[C@@H](OP(=O)(N[C@@H](C)C(=O)OC(C)C)Oc2ccccc2)C(OC(C)=O)[C@@H](OC(C)=O)[C@@H]1OC(C)=O (stereo partly drawn) [Compound 4, (2S,3S,4S,5S,6S)-2-((S)-2-acetoxy-1-fluoroethyl)-6-(((((S)-1-isopropoxy-1-oxopropan-2-yl)amino)(phenoxy)phosphoryl)oxy)tetra-hydro-2H-pyran-3,4,5-triyl triacetate] | – | – | – | – | – | – | strong inductive effect | – | – | – | – | – | – | – | – | – |
